Results reported in article PMC4494873 (Bioorganic & medicinal chemistry letters, 2015).
Entries after “also recorded” stand apart in the source; their conditions may differ.

What was measured:
[1] = system: Multiple HSV-2 (including 186); settings: Vero, multiple HSV-2 isolates including 186; ref [32], [33]; cited from earlier work
HIV-1 virus = experiment: Anti-HIV activity: Jurkat cells infected with HIV-1, MTT assay and RT assay; type: cell-based; settings: 1 μg/mL or 5 μg/mL, compared with DMSO and AZT
HSV-2 186 = experiment: Viral replication yield reduction assay; type: cell-based, herpes simplex virus type-2 (HSV-2); settings: selectivity index, Vero
[2] = molecular target: human serum albumin (HSA) (Homo sapiens, UniProt P02768); experiment: Fluorescence titration with HSA; type: binding
human serum albumin (HSA), sequence (P02768 25-609): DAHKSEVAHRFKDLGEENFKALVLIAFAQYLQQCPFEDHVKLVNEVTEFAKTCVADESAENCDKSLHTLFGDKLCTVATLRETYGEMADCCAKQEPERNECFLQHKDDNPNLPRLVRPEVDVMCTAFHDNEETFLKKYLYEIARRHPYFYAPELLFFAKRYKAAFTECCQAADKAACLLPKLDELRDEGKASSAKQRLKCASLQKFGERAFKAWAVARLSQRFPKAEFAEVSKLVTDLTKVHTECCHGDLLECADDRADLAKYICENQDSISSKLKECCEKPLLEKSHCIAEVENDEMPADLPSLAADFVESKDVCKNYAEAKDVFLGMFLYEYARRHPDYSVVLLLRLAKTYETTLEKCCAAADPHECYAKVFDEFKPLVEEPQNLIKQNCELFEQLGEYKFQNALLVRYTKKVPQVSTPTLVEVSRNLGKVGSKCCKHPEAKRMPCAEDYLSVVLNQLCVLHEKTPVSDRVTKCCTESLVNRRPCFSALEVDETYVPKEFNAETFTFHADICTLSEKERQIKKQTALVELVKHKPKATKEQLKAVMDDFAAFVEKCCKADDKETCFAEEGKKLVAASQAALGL

[3] = cited from earlier work
HSA = settings: betulinic acid 0.01−0.1 mM, HSA 0.025 mM, fluorescence excitation at 285 nm; ref [34]; cited from earlier work
Vero cells = experiment: Cytotoxicity in Vero cells

Nc1nc2c(ncn2COCCO)c(=O)[nH]1 [Acyclovir]
IC50 [1]: 100 to 10000 nM

C=C(C)[C@@H]1CC[C@]2(C(=O)O)CC[C@]3(C)[C@H](CC[C@@H]4[C@@]5(C)CC[C@H](O)C(C)(C)[C@@H]5CC[C@]43C)[C@@H]12 [Compound 1, 3β-hydroxy-lup-20(29)-en-28-oic acid]
inhibitory activity of HIV-1 RT (in words) (HIV-1 virus): no inhibitory activity | SI (HSV-2 186): > 62.5 | Kd ([2]; Kd (285 nm), fluorescence excitation at 285 nm): 4500 nM | Kd ([2]; Kd (295 nm), fluorescence excitation at 295 nm): 1300 nM | solubility in DMSO ([3]; 25 °C, ref [23]): 5 % (w/v) | solubility in ethanol ([3]; 25 °C, ref [23]): 1 % (w/v) | solubility in water ([3]; room temperature, ref [22]): about 0.02 μg mL^−1 | binding constant with HSA (HSA): 1.685e+06 M⁻¹ | cellular cytotoxicity (in words) (Vero cells): low cytotoxicity; also recorded: minimal cellular cytotoxicity
